What was measured:
CTR astrocytes = assay: Potassium uptake (86Rb) by CTR astrocytes; assay type: cell-based, human; conditions: CTR glia/astrocytes, 86Rb uptake, 4 lines
Method: (§1) Potassium uptake. Astrocytes were plated onto poly-ornithine- and laminin-coated 24-well plates with 30,000 cells/well. For the potassium uptake assay, astrocytes were incubated with ^86Rb (1.0-3.3 μCi/well) for 15 minutes, and then they were washed three time with ice-cold artificial cerebrospinal fluid (aCSF, 500 μL/well). 0.5N NaOH (200 μL/well) was put into each well for cell lysis, which was put into 5 ml cocktail liquid (Ultima Gold, Fisher Scientific, 509050575) and measured by scintillation counter (Beckman Coulter, LS6500), and the results were normalized to both total protein (BCA Protein Assay Kit, Fisher Scientific, 23227) and cell number (Hemocytometer, Fisher Scientific, 02-671-54). The aCSF solution contained (in mM): 124 NaCl, 2.5 KCl, 1.75 NaH2PO4, 2 MgCl2, 2 CaCl2, 0.04 vitamin C, 10 glucose and 26 NaHCO3, pH 7.4.
To address this hypothesis, qPCR was used to confirm whether these K+ channel-associated genes were dysregulated in SCZ glia. […] Next, functional K^+ uptake was assessed directly, in cultured SCZ- and CTR-derived astrocytes. To obtain mature SCZ and CTR astrocyte cultures, CD44− sorted glial progenitors were cultured in base media supplemented with 10% fetal bovine serum (FBS) and 20 ng/ml BMP4 for 4 weeks, so as to potentiate the differentiation of mature, glial fibrillary acidic protein (GFAP)-expressing, fiber-bearing astrocytes (FIGS. 10A-10C). […] Astrocytes from 4 different SCZ and 4 different CTR lines were then incubated with 86Rb, a surrogate monovalent cation for K^+ uptake (Larsen et al., “Contributions of the Na(+)/K(+)-ATPase, NKCC1, and Kir4.1 to Hippocampal K(+) Clearance and Volume Responses,” Glia 62:608-622 (2014), which is hereby incorporated by reference in its entirety), and rubidium uptake measured as a function of both cell number and total protein.

SCZ astrocytes = assay: Potassium uptake (86Rb) by SCZ astrocytes; assay type: cell-based, human; conditions: 86Rb uptake, 4 lines
Method: as §1, with “The aCSF solution contained (in mM): 124 NaCl, 2.5 KCl, 1.75 NaH2PO4, 2 MgCl2, 2 CaCl2, 0.04 vitamin C, 10 glucose and 26 NaHCO3, pH 7.4.” left out
To address this hypothesis, qPCR was used to confirm whether these K+ channel-associated genes were dysregulated in SCZ glia. […] Next, functional K^+ uptake was assessed directly, in cultured SCZ- and CTR-derived astrocytes. […] Astrocytes from 4 different SCZ and 4 different CTR lines were then incubated with 86Rb, a surrogate monovalent cation for K^+ uptake (Larsen et al., “Contributions of the Na(+)/K(+)-ATPase, NKCC1, and Kir4.1 to Hippocampal K(+) Clearance and Volume Responses,” Glia 62:608-622 (2014), which is hereby incorporated by reference in its entirety), and rubidium uptake measured as a function of both cell number and total protein.

| Compound | K+ uptake (CTR astrocytes) | K+ uptake (SCZ astrocytes) |
| --- | --- | --- |
| CCCCNc1cc(C(=O)O)cc(S(N)(=O)=O)c1Oc1ccccc1 [bumetanide] | significantly inhibited | neither ouabain nor bumetanide affected |
| C[C@@H]1O[C@@H](O[C@H]2C[C@@H](O)[C@]3(CO)[C@H]4[C@H](O)C[C@]5(C)[C@@H](C6=CC(=O)OC6)CC[C@]5(O)[C@@H]4CC[C@]3(O)C2)[C@H](O)[C@H](O)[C@H]1O [ouabain] | significantly inhibited | neither ouabain nor bumetanide affected |
| tertiapin (ALCNCNRIIIPHMCWKKCGKK; UniProt P56587 1-21, looked up) [drug which targets Kir channels] | did not | – |
